According to paper PMC2921628 (Biochemistry, 2010):
Where two headings read alike, the source gives them in different places. Each block holds one molecule with its values, some of them ahead of it.

What was measured:
[1] = molecular target: T1, cdk5/p25 (Homo sapiens, UniProt Q00535); experiment: Initial velocity kinetic analysis of cdk5/p25-catalyzed H1P phosphorylation; assay type: biochemical
[2] = cited from earlier work
[3] = molecular target: T1, cdk5/p25; experiment: Inhibition studies with substrate analogues and product ADP at 0.2 mM MgCl2; assay type: biochemical; settings: 0.2 mM Mg^2+
[4] = molecular target: T1, cdk5/p25; experiment: Influence of D2O on inhibitor; assay type: biochemical; settings: 10 µM ATP, saturating H1P; data not shown
[5] = versus variable substrate ATP (H1P fixed)
[6] = versus variable substrate H1P (ATP fixed)

T1 sequence (Q00535 whole entry, species assumed): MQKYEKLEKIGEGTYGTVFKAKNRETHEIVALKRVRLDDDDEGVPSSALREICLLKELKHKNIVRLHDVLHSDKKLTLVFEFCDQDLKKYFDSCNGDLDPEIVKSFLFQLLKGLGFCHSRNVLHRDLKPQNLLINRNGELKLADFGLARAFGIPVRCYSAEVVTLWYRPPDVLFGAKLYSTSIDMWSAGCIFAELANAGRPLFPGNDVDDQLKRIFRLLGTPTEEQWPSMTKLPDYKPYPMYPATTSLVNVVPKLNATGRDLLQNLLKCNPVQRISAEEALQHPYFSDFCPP
T1 sequence (Q15078 99-307 partner limits assumed, species assumed): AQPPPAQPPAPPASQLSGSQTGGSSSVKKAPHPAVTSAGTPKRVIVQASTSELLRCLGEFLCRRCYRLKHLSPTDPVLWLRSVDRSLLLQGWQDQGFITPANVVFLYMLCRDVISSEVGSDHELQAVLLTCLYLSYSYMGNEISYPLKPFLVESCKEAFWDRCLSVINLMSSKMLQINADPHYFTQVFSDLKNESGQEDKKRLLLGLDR

Kd ([1]; KATP (KMgATP), 2.5 mM free Mg^2+): 6.1 ± 1.5 µM
Compound: Nc1ncnc2c1ncn2[C@@H]1O[C@H](COP(=O)(O)OP(=O)(O)OP(=O)(O)O)[C@@H](O)[C@H]1O [ATP, Adenosine 5’-triphosphate]
pKa for protonation of the γ-phosphate of ATP [2]: 4.6

mechanism of inhibition [3, 5]: competitive | mechanism of inhibition [3, 6]: noncompetitive
Compound: Nc1ncnc2c1ncn2[C@@H]1O[C@H](COP(=O)(O)OP(=O)(O)O)[C@@H](O)[C@H]1O [ADP]

hill coefficient ([1]; MgATP dependence of (kcat)H1P at 0.2 mM free Mg^2+ (Figure 1B)): 1.8 ± 0.1 | Kd ([1]; read-out: KATP (KMgATP), 0.2 mM free Mg^2+): 60 ± 20 µM | Kd ([1]; read-out: KATP (KMgATP), 2.5 mM free Mg^2+): 6.1 ± 1.5 µM
Compound: Nc1ncnc2c1ncn2[C@@H]1O[C@H](COP(=O)(O)OP(=O)([O-])OP(=O)([O-])O)[C@@H](O)[C@H]1O.[Mg+2] [MgATP]
dissociation constant of MgATP ([2]; used to calculate MgATP and free Mg^2+ concentrations): 14.3 µM

dissociation constant from E:H1P:AMP, lowering in 85% D2O compared with water [4]: approximately 1.5 fold | enzyme forms that inhibitor binds [3]: binds to both E and E:B complex | mechanism of inhibition [3, 5]: competitive | mechanism of inhibition [3, 6]: noncompetitive
Compound: Nc1ncnc2c1ncn2[C@@H]1O[C@H](COP(=O)(O)O)[C@@H](O)[C@H]1O [AMP]
